A short description of data set [1]: Biodegradability (OECD 306).
The next data set concerns Skeletonema costatum. Nature of the data set: Toxicity (EC50 Skeletonema costatum). Type of data set: cell-based.

Molecules are shown by their SMILES.

Turning to `CCCCCCCCN1CC(C(=O)O)CC1=O.NCCO` (stereo not shown) [Compound from example 1, N-octyl-5-oxopyrrolidine-3-carboxylic acid monoethanolammonium salt], the Biodegradability in data set [1] came to 85%. Further, the “Toxicity EC50” value in the data set on Skeletonema costatum was more than 100 µg/mL.

In data set [1], `CCCCCCCC/C=C\CCCCCCCCN1CC(C(=O)O)CC1=O.NCCO` (stereo not shown) [Compound from example 5, N-oleyl-5-oxopyrrolidine-3-carboxylic acid monoethanolammonium salt] yielded a Biodegradability of 78%. In addition, the “Toxicity EC50” value with Skeletonema costatum was more than 100 µg/mL.

Source of the values: patent US8349215B2, “Corrosion inhibitors having increased biological degradability and minimized toxicity” (Clariant Finance (BVI) Limited, priority 2008, dated 2013).
